These are literature values, as cited in patent US20180250233A1, “TABLETS HAVING MEDIA INDEPENDENT ACTIVE SUBSTANCE DELIVERY” (MERCK PATENT GMBH, priority 2015, published 2018).

Consider `CC(C)NCC(O)COc1cccc2ccccc12` (centres unmarked) [propranolol], for which the elimination half-life (in vivo) is 2 to 6 h. Under “oral administration, pronounced first-pass metabolism”, the bioavailability is listed as 25-30%.
